Reference: patent publication US12398154B2, “Azaquinazoline pan-KRas inhibitors” (Mirati Therapeutics, Inc., priority 2020, dated 2025)

Experiments:
Test in all cases: biochemical
[1] = target: KRas G12D (Homo sapiens, UniProt P01116, G12D);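 also: TR-FRET displacement binding assay on KRas, read after a one-hour incubation at room temperature, IC50 fitted from percent-of-control values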
Experimental: (§1) The ability of a compound to bind to KRas was measured using a TR-FRET displacement assay. […] After a 60-minute incubation at room temperature, the reaction was measured using a BMG LABTECH CLARIO star Plus via TR-FRET. […] The POC values were fit to a 4-parameter IC50 equation and the IC50 value reported.

[2] = target: KRas G12V (Homo sapiens, UniProt P01116, G12V);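 also: KRas binding measured by TR-FRET displacement at room temperature, IC50 fitted from percent of control values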
Chain of KRas G12V (P01116 1-169 isoform P01116-2 G12V): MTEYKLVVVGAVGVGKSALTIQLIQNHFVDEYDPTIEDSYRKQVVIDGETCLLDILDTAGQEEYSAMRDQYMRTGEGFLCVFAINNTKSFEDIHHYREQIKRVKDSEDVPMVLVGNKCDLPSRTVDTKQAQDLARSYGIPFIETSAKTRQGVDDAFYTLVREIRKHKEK
Experimental: as §1

[3] = target: KRas G12R (Homo sapiens, UniProt P01116, G12R);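 also: TR-FRET displacement assay of compound binding to KRas, read after one hour at room temperature, potency from a four-parameter fit of percent-of-control values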
Chain of KRas G12R (P01116 1-169 isoform P01116-2 G12R): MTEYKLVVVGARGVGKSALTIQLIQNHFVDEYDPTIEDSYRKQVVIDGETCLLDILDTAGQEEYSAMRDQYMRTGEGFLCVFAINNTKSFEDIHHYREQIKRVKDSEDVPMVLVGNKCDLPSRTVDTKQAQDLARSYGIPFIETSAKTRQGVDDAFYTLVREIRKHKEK
Experimental: as §1

[4] = target: KRas G12A (Homo sapiens, UniProt P01116, G12A);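 also: binding to KRas measured by TR-FRET displacement after one hour at room temperature, IC50 from a four-parameter fit of percent-of-control values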
Chain of KRas G12A (P01116 1-169 isoform P01116-2 G12A): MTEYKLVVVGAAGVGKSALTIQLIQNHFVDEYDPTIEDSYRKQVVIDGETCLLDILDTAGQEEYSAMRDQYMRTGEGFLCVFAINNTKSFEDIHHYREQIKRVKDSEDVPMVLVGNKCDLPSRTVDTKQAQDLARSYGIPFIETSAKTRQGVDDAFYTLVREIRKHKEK
Experimental: as §1

[5] = target: KRas G12S (Homo sapiens, UniProt P01116, G12S);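 also: TR-FRET displacement binding to KRas, read after one hour incubation at room temperature, IC50 from four-parameter fit of percent of control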
Chain of KRas G12S (P01116 1-169 isoform P01116-2 G12S): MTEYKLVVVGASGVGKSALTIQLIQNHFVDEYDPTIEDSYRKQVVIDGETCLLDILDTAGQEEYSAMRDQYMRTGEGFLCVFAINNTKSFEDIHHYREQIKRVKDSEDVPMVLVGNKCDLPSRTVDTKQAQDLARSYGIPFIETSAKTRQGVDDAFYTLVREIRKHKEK
Experimental: as §1

[6] = target: KRas G12C (Homo sapiens, UniProt P01116, G12C);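 also: binding to KRas assessed by TR-FRET displacement after one hour incubation at room temperature, potency fitted from percent-of-control values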
Chain of KRas G12C (P01116 1-169 isoform P01116-2 G12C): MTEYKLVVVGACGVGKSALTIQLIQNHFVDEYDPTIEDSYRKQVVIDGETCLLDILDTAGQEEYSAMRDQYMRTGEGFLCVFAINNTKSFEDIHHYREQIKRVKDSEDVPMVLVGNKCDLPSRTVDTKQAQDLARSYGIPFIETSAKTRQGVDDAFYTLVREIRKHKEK
Experimental: as §1

[7] = target: KRas WT (Homo sapiens, UniProt P01116);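 also: binding to KRas read as TR-FRET displacement after a one-hour room-temperature incubation, IC50 derived from percent-of-control values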
Chain of KRas WT (P01116 1-169 isoform P01116-2): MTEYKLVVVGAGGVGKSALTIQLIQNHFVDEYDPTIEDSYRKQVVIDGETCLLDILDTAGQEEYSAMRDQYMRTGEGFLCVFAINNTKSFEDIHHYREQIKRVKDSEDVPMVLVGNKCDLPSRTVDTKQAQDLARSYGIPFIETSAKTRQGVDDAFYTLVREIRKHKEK
Experimental: as §1

Chain of KRas G12D (P01116 1-169 isoform P01116-2 G12D): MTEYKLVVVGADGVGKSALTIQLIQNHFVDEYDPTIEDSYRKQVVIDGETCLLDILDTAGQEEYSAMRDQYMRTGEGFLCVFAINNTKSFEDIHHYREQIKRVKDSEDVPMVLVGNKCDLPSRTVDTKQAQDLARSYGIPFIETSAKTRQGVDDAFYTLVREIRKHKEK

SMILES | IC50 [1] | IC50 [2] | IC50 [3] | IC50 [4] | IC50 [5] | IC50 [6] | IC50 [7]
N#Cc1cccc2cccc(-c3ncc4c(N5CCCC6(C5)NC(=O)NC6=O)nc(OCC56CCCN5CCC6)nc4c3F)c12 (stereo not drawn) [Example 449, 8-(4-(2,4-dioxo-1,3,7-triazaspiro[4.5]decan-7-yl)-8-fluoro-2-((hexahydro-1H-pyrrolizin-7a-yl)methoxy)pyrido[4,3-d]pyrimidin-7-yl)-1-naphthonitrile] | 8390 nM | 3660 nM | 4380 nM | 5620 nM | 4160 nM | 3600 nM | 4070 nM
O=S1(=O)CC(CNc2nc(OCC34CCCN3CCC4)nc3c(F)c(-c4cccc5cccc(CO)c45)ncc23)C1 [Example 443, 3-(((8-fluoro-2-((hexahydro-1H-pyrrolizin-7a-yl)methoxy)-7-(8-(hydroxymethyl)naphthalen-1-yl)pyrido[4,3-d]pyrimidin-4-yl)amino)methyl)thietane1,1-dioxide] | 53000 nM | 4210 nM | 6380 nM | 8470 nM | 6310 nM | 8200 nM | 18800 nM
Cc1cccc2cccc(-c3ncc4c(N5CCCC6(CC(=O)N6)C5)nc(OCC56CCCN5CCC6)nc4c3F)c12 (stereo not drawn) [Example 450, 6-(8-fluoro-2-((hexahydro-1H-pyrrolizin-7a-yl)methoxy)-7-(8-methylnaphthalen-1-yl)pyrido[4,3-d]pyrimidin-4-yl)-1,6-diazaspiro[3.5]nonan-2-one] | 250 nM | 238 nM | 344 nM | 356 nM | 276 nM | 235 nM | 335 nM
O=C1CC2(CCCN(c3nc(OCC45CCCN4CCC5)nc4c(F)c(-c5cccc6cccc(F)c56)ncc34)C2)C(=O)N1 (stereo not drawn) [Example 265, 7-(8-fluoro-7-(8-fluoronaphthalen-1-yl)-2-((hexahydro-1H-pyrrolizin-7a-yl)methoxy)pyrido[4,3-d]pyrimidin-4-yl)-2,7-diazaspiro[4.5]decane-1,3-dione] | 5310 nM | 2740 nM | 1920 nM | 3020 nM | 2510 nM | 3310 nM | 2460 nM
CCc1c(F)ccc2cc(O)cc(-c3ncc4c(N5CCC[C@@](C)(O)C5)nc(C(=O)NC(C)CN(C)C)nc4c3F)c12 (stereo partly drawn) [Example 312, N-(1-(dimethylamino)propan-2-yl)-7-(8-ethyl-7-fluoro-3-hydroxynaphthalen-1-yl)-8-fluoro-4-((R)-3-hydroxy-3-methylpiperidin-1-yl)pyrido[4,3-d]pyrimidine-2-carboxamide] | 388 nM | 254 nM | 203 nM | 156 nM | 172 nM | 212 nM | 202 nM
NC(=O)C(O)CNc1nc(OCC23CCCN2CCC3)nc2c(F)c(-c3cccc4cccc(Cl)c34)ncc12 (stereo not drawn) [Example 475, 3-((7-(8-chloronaphthalen-1-yl)-8-fluoro-2-((tetrahydro-1H-pyrrolizin-7a(5H)-yl)methoxy)pyrido[4,3-d]pyrimidin-4-yl)amino)-2-hydroxypropanamide] | 8550 nM | 1460 nM | 2620 nM | 3680 nM | 2750 nM | 2750 nM | 4600 nM
O=C1CC2(CCCN(c3nc(OCC45CCCN4CCC5)nc4c(F)c(-c5cccc6cccc(F)c56)ncc34)C2)CN1 (stereo not drawn) [Example 20, 7-(8-fluoro-7-(8-fluoronaphthalen-1-yl)-2-((hexahydro-1H-pyrrolizin-7a-yl)methoxy)pyrido[4,3-d]pyrimidin-4-yl)-2,7-diazaspiro[4.5]decan-3-one] | 2390 nM | 3400 nM | 7390 nM | 2780 nM | 2980 nM | 3180 nM | 2970 nM
NS(=O)(=O)CC1CCCN(c2nc(OCC34CCCN3CCC4)nc3c(F)c(-c4cccc5cccc(CF)c45)ncc23)C1 (stereo not drawn) [Example 460, 1-(1-(8-fluoro-7-(8-(fluoromethyl)naphthalen-1-yl)-2-((hexahydro-1H-pyrrolizin-7a-yl)methoxy)pyrido[4,3-d]pyrimidin-4-yl)piperidin-3-yl)methanesulfonamide] | 2320 nM | 1470 nM | 548 nM | 760 nM | 759 nM | 916 nM | 693 nM
N#Cc1cccc2cccc(-c3ncc4c(N5CCCC6(CC(=O)N6)C5)nc(OCC56CCCN5CCC6)nc4c3F)c12 (stereo not drawn) [Example 451, 8-(8-fluoro-2-((hexahydro-1H-pyrrolizin-7a-yl)methoxy)-4-(2-oxo-1,6-diazaspiro[3.5]nonan-6-yl)pyrido[4,3-d]pyrimidin-7-yl)-1-naphthonitrile] | 2580 nM | 2860 nM | 4170 nM | 3120 nM | 2060 nM | 1900 nM | 2270 nM
O=C1NC(=O)C2(CCCCN(c3nc(OCC45CCCN4CCC5)nc4c(F)c(-c5cccc6cccc(F)c56)ncc34)C2)N1 (stereo not drawn) [Example 267, 7-(8-fluoro-7-(8-fluoronaphthalen-1-yl)-2-((hexahydro-1H-pyrrolizin-7a-yl)methoxy)pyrido[4,3-d]pyrimidin-4-yl)-1,3,7-triazaspiro[4.6]undecane-2,4-dione] | 4370 nM | 1710 nM | 1720 nM | 2500 nM | 2070 nM | 2250 nM | 1560 nM
Cc1cccc2cccc(-c3ncc4c(N5CCCC(CS(N)(=O)=O)C5)nc(OCC56CCCN5CCC6)nc4c3F)c12 (stereo not drawn) [Example 438, 1-(1-(8-fluoro-2-((hexahydro-1H-pyrrolizin-7a-yl)methoxy)-7-(8-methylnaphthalen-1-yl)pyrido[4,3-d]pyrimidin-4-yl)piperidin-3-yl)methanesulfonamide] | 238 nM | 239 nM | 99 nM | 109 nM | 106 nM | 130 nM | 95 nM
Cc1cc(-c2ncc3c(N4CCCC(C)(O)C4)nc(OCC45CCCN4CCC5)nc3c2F)c2cn[nH]c2c1 (stereo not drawn) [Example 431, 1-(8-fluoro-7-(6-methyl-1H-indazol-4-yl)-2-((tetrahydro-1H-pyrrolizin-7a(5H)-yl)methoxy)pyrido[4,3-d]pyrimidin-4-yl)-3-methylpiperidin-3-ol] | 9620 nM | 15900 nM | 34400 nM | 19600 nM | 19700 nM | 17900 nM | 19700 nM

The next compounds have a lower IC50 [1] than those just listed; values first:

IC50 [1] | IC50 [2] | IC50 [3] | IC50 [4] | IC50 [5] | IC50 [6] | IC50 [7] | SMILES
140 nM | 277 nM | 439 nM | 229 nM | 192 nM | 161 nM | 269 nM | CCc1cccc2cccc(-c3ncc4c(N5CCOCC(C)(O)C5)nc(OCC56CCCN5CCC6)nc4c3F)c12 (stereo not drawn) [Example 291, 4-(7-(8-ethylnaphthalen-1-yl)-8-fluoro-2-((hexahydro-1H-pyrrolizin-7a-yl)methoxy)pyrido[4,3-d]pyrimidin-4-yl)-6-methyl-1,4-oxazepan-6-ol]
213 nM | 170 nM | 81 nM | 59 nM | 67 nM | 75 nM | 61 nM | NS(=O)(=O)CC1CCCN(c2nc(OCC34CCCN3CCC4)nc3c(F)c(-c4cccc5cccc(Cl)c45)ncc23)C1 (stereo not drawn) [Example 281, 1-(1-(7-(8-chloronaphthalen-1-yl)-8-fluoro-2-((tetrahydro-1H-pyrrolizin-7a(5H)-yl)methoxy)pyrido[4,3-d]pyrimidin-4-yl)piperidin-3-yl)methanesulfonamide]
127 nM | 105 nM | 149 nM | 180 nM | 146 nM | 135 nM | 196 nM | CSc1cccc2cccc(-c3ncc4c(N5CCCC6(CC(=O)N6)C5)nc(OCC56CCCN5CCC6)nc4c3F)c12 (stereo not drawn) [Example 469, 6-(8-fluoro-2-((hexahydro-1H-pyrrolizin-7a-yl)methoxy)-7-(8-(methylthio)naphthalen-1-yl)pyrido[4,3-d]pyrimidin-4-yl)-1,6-diazaspiro[3.5]nonan-2-one]
105 nM | 191 nM | 421 nM | 176 nM | 167 nM | 157 nM | 163 nM | Cc1cccc2cccc(-c3ncc4c(N5CCCC6(CNC(=O)N6)C5)nc(OCC56CCCN5CCC6)nc4c3F)c12 (stereo not drawn) [Example 454, 7-(8-fluoro-2-((hexahydro-1H-pyrrolizin-7a-yl)methoxy)-7-(8-methylnaphthalen-1-yl)pyrido[4,3-d]pyrimidin-4-yl)-1,3,7-triazaspiro[4.5]decan-2-one]
53 nM | 67 nM | 78 nM | 95 nM | 82 nM | 68 nM | 89 nM | CCc1cccc2cccc(-c3ncc4c(N5CCCC6(CC(=O)N6)C5)nc(OCC56CCCN5CCC6)nc4c3F)c12 (stereo not drawn) [Example 288, 6-(7-(8-ethylnaphthalen-1-yl)-8-fluoro-2-((hexahydro-1H-pyrrolizin-7a-yl)methoxy)pyrido[4,3-d]pyrimidin-4-yl)-1,6-diazaspiro[3.5]nonan-2-one]
97 nM | 90 nM | 129 nM | 97 nM | 91 nM | 77 nM | 113 nM | O=C1CC2(CCCN(c3nc(OCC45CCCN4CCC5)nc4c(F)c(-c5cccc6cccc(Cl)c56)ncc34)C2)N1 (stereo not drawn) [Example 283, 6-(7-(8-chloronaphthalen-1-yl)-8-fluoro-2-((tetrahydro-1H-pyrrolizin-7a(5H)-yl)methoxy)pyrido[4,3-d]pyrimidin-4-yl)-1,6-diazaspiro[3.5]nonan-2-one]
